System: not listed separately
Assay: Antiproliferative activity against human SF268 cells assessed as cell growth at 10^-5 M after 48 hrs by sulforhodamine B assay
Format: functional
Settings: SF-268, 48 h, read-out: Activity
In the case of CNC(=O)c1cc(Oc2ccc3nc(NC(=O)Nc4ccc(Cl)c(C(F)(F)F)c4)sc3c2)ccn1, the growth at 10 µM was 1%.

System: U-251
Assay: Antiproliferative activity against human U251 cells assessed as growth inhibition after 48 hrs by sulforhodamine B assay
Format: functional
Settings: U-251, 48 h
CNC(=O)c1cc(Oc2ccc3nc(NC(=O)Nc4ccc(Cl)c(C(F)(F)F)c4)sc3c2)ccn1 showed a GI50 of 1790 nM and a TGI of 3.75 µM.

System: not listed separately
Assay: Antiproliferative activity against human SF539 cells assessed as cell growth at 10^-5 M after 48 hrs by sulforhodamine B assay
Format: functional
Settings: SF-539, 48 h, read-out: Activity
For CNC(=O)c1cc(Oc2ccc3nc(NC(=O)Nc4ccc(Cl)c(C(F)(F)F)c4)sc3c2)ccn1, the growth at 10 µM was -60%.

System: SK-MEL-5
Assay: Antiproliferative activity against human SK-MEL-5 cells assessed as cell growth at 10^-5 M after 48 hrs by sulforhodamine B assay
Format: functional
Settings: SK-MEL-5, 48 h, read-out: Activity
CNC(=O)c1cc(Oc2ccc3nc(NC(=O)Nc4ccc(Cl)c(C(F)(F)F)c4)sc3c2)ccn1 gave a growth at 10 µM of -62%.

System: not listed separately
Assay: Antiproliferative activity against human UACC62 cells assessed as cell growth at 10^-5 M after 48 hrs by sulforhodamine B assay
Format: functional
Settings: UACC-62, 48 h, read-out: Activity
For CNC(=O)c1cc(Oc2ccc3nc(NC(=O)Nc4ccc(Cl)c(C(F)(F)F)c4)sc3c2)ccn1, the growth at 10 µM was -22%.

System: HT-29
Assay: Antiproliferative activity against human HT-29 cells assessed as cell growth at 10^-5 M after 48 hrs by sulforhodamine B assay
Format: functional
Settings: HT-29, 48 h, read-out: Activity
For CNC(=O)c1cc(Oc2ccc3nc(NC(=O)Nc4ccc(Cl)c(C(F)(F)F)c4)sc3c2)ccn1, the growth at 10 µM was 5%.

System: CCRF-CEM
Assay: Antiproliferative activity against human CCRF-CEM cells assessed as cell growth at 10^-5 M after 48 hrs by sulforhodamine B assay
Format: functional
Settings: read-out: Activity
Work on CNC(=O)c1cc(Oc2ccc3nc(NC(=O)Nc4ccc(Cl)c(C(F)(F)F)c4)sc3c2)ccn1 yielded a growth at 10 µM of 22%.

System: A549
Assay: Antiproliferative activity against human A549/ATCC cells assessed as cell growth at 10^-4 M after 48 hrs by sulforhodamine B assay
Format: functional
Settings: A549, 48 h, read-out: Activity
CNC(=O)c1cc(Oc2ccc3nc(NC(=O)Nc4ccc(Cl)c(C(F)(F)F)c4)sc3c2)ccn1 showed a growth at 100 µM of 9%.

System: ACHN
Assay: Antiproliferative activity against human ACHN cells assessed as cell growth at 10^-7 M after 48 hrs by sulforhodamine B assay
Format: functional
Settings: read-out: Activity
For CNC(=O)c1cc(Oc2ccc3nc(NC(=O)Nc4ccc(Cl)c(C(F)(F)F)c4)sc3c2)ccn1, the growth at 0.1 µM was 102%.

System: not listed separately
Assay: Antiproliferative activity against human PC3 cells assessed as cell growth at 10^-5 M after 48 hrs by sulforhodamine B assay
Format: functional
Settings: PC-3, 48 h, read-out: Activity
Compound CNC(=O)c1cc(Oc2ccc3nc(NC(=O)Nc4ccc(Cl)c(C(F)(F)F)c4)sc3c2)ccn1 has a growth at 10 µM of -67%.

System: SR
Assay: Antiproliferative activity against human SR cells assessed as cell growth at 10^-5 M after 48 hrs by sulforhodamine B assay
Format: functional
Settings: read-out: Activity
Compound CNC(=O)c1cc(Oc2ccc3nc(NC(=O)Nc4ccc(Cl)c(C(F)(F)F)c4)sc3c2)ccn1 has a growth at 10 µM of -1%.

System: NCI-H522
Assay: Antiproliferative activity against human NCI-H522 cells assessed as growth inhibition after 48 hrs by sulforhodamine B assay
Format: functional
Settings: NCI-H522, 48 h
Work on CNC(=O)c1cc(Oc2ccc3nc(NC(=O)Nc4ccc(Cl)c(C(F)(F)F)c4)sc3c2)ccn1 yielded a GI50 of 2540 nM, an LC50 (concentration killing 50% of cells) of over 100 µM and a TGI of over 100 µM.

System: not listed separately
Assay: Antiproliferative activity against human RXF393 cells assessed as cell growth at 10^-5 M after 48 hrs by sulforhodamine B assay
Format: functional
Settings: RXF 393, 48 h, read-out: Activity
Compound CNC(=O)c1cc(Oc2ccc3nc(NC(=O)Nc4ccc(Cl)c(C(F)(F)F)c4)sc3c2)ccn1 has a growth at 10 µM of -45%.

System: ACHN
Assay: Antiproliferative activity against human ACHN cells assessed as cell growth at 10^-5 M after 48 hrs by sulforhodamine B assay
Format: functional
Settings: read-out: Activity
In the case of CNC(=O)c1cc(Oc2ccc3nc(NC(=O)Nc4ccc(Cl)c(C(F)(F)F)c4)sc3c2)ccn1, the growth at 10 µM was -67%.

System: not listed separately
Assay: Antiproliferative activity against human HL-60(TB) cells assessed as cell growth at 10^-8 M after 48 hrs by sulforhodamine B assay
Format: functional
Settings: HL-60, 48 h, read-out: Activity
With CNC(=O)c1cc(Oc2ccc3nc(NC(=O)Nc4ccc(Cl)c(C(F)(F)F)c4)sc3c2)ccn1 the growth at 0.01 µM was 101%.

System: NCI-H23
Assay: Antiproliferative activity against human NCI-H23 cells assessed as cell growth at 10^-5 M after 48 hrs by sulforhodamine B assay
Format: functional
Settings: NCI-H23, 48 h, read-out: Activity
CNC(=O)c1cc(Oc2ccc3nc(NC(=O)Nc4ccc(Cl)c(C(F)(F)F)c4)sc3c2)ccn1 gave a growth at 10 µM of -8%.

System: not listed separately
Assay: Antiproliferative activity against human SF295 cells assessed as cell growth at 10^-5 M after 48 hrs by sulforhodamine B assay
Format: functional
Settings: SF-295, 48 h, read-out: Activity
Work on CNC(=O)c1cc(Oc2ccc3nc(NC(=O)Nc4ccc(Cl)c(C(F)(F)F)c4)sc3c2)ccn1 yielded a growth at 10 µM of -68%.

System: not listed separately
Assay: Antiproliferative activity against human OVCAR5 cells assessed as cell growth at 10^-5 M after 48 hrs by sulforhodamine B assay
Format: functional
Settings: OVCAR-5, 48 h, read-out: Activity
Compound CNC(=O)c1cc(Oc2ccc3nc(NC(=O)Nc4ccc(Cl)c(C(F)(F)F)c4)sc3c2)ccn1 has a growth at 10 µM of -13%.

System: NCI-H322M
Assay: Antiproliferative activity against human NCI-H322M cells assessed as cell growth at 10^-5 M after 48 hrs by sulforhodamine B assay
Format: functional
Settings: read-out: Activity
Compound CNC(=O)c1cc(Oc2ccc3nc(NC(=O)Nc4ccc(Cl)c(C(F)(F)F)c4)sc3c2)ccn1 has a growth at 10 µM of -14%.

System: U-251
Assay: Antiproliferative activity against human U251 cells assessed as cell growth at 10^-5 M after 48 hrs by sulforhodamine B assay
Format: functional
Settings: U-251, 48 h, read-out: Activity
CNC(=O)c1cc(Oc2ccc3nc(NC(=O)Nc4ccc(Cl)c(C(F)(F)F)c4)sc3c2)ccn1 showed a growth at 10 µM of -66%.

System: MCF7
Assay: Antiproliferative activity against human MCF7 cells assessed as cell growth at 10^-6 M after 48 hrs by sulforhodamine B assay
Format: functional
Settings: MCF7, 48 h, read-out: Activity
Work on CNC(=O)c1cc(Oc2ccc3nc(NC(=O)Nc4ccc(Cl)c(C(F)(F)F)c4)sc3c2)ccn1 yielded a growth at 1 µM of 66%.

System: EKVX
Assay: Antiproliferative activity against human EKVX cells assessed as cell growth at 10^-5 M after 48 hrs by sulforhodamine B assay
Format: functional
Settings: read-out: Activity
Compound CNC(=O)c1cc(Oc2ccc3nc(NC(=O)Nc4ccc(Cl)c(C(F)(F)F)c4)sc3c2)ccn1 has a growth at 10 µM of -50%.

System: not listed separately
Assay: Antiproliferative activity against human OVCAR3 cells assessed as cell growth at 10^-8 M after 48 hrs by sulforhodamine B assay
Format: functional
Settings: OVCAR-3, 48 h, read-out: Activity
With CNC(=O)c1cc(Oc2ccc3nc(NC(=O)Nc4ccc(Cl)c(C(F)(F)F)c4)sc3c2)ccn1 the growth at 0.01 µM was 109%.

System: not listed separately
Assay: Antiproliferative activity against human HL-60(TB) cells assessed as cell growth at 10^-5 M after 48 hrs by sulforhodamine B assay
Format: functional
Settings: HL-60, 48 h, read-out: Activity
CNC(=O)c1cc(Oc2ccc3nc(NC(=O)Nc4ccc(Cl)c(C(F)(F)F)c4)sc3c2)ccn1 showed a growth at 10 µM of 52%.

System: not listed separately
Assay: Antiproliferative activity against human UACC62 cells assessed as cell growth at 10^-4 M after 48 hrs by sulforhodamine B assay
Format: functional
Settings: UACC-62, 48 h, read-out: Activity
CNC(=O)c1cc(Oc2ccc3nc(NC(=O)Nc4ccc(Cl)c(C(F)(F)F)c4)sc3c2)ccn1 gave a growth at 100 µM of 26%.

System: not listed separately
Assay: Antiproliferative activity against human SW620 cells assessed as cell growth at 10^-5 M after 48 hrs by sulforhodamine B assay
Format: functional
Settings: SW-620, 48 h, read-out: Activity
CNC(=O)c1cc(Oc2ccc3nc(NC(=O)Nc4ccc(Cl)c(C(F)(F)F)c4)sc3c2)ccn1 gave a growth at 10 µM of 4%.

System: K562
Assay: Antiproliferative activity against human K562 cells assessed as cell growth at 10^-5 M after 48 hrs by sulforhodamine B assay
Format: functional
Settings: K562, 48 h, read-out: Activity
With CNC(=O)c1cc(Oc2ccc3nc(NC(=O)Nc4ccc(Cl)c(C(F)(F)F)c4)sc3c2)ccn1 the growth at 10 µM was 32%.

System: not listed separately
Assay: Antiproliferative activity against human OVCAR3 cells assessed as growth inhibition after 48 hrs by sulforhodamine B assay
Format: functional
Settings: OVCAR-3, 48 h
CNC(=O)c1cc(Oc2ccc3nc(NC(=O)Nc4ccc(Cl)c(C(F)(F)F)c4)sc3c2)ccn1 showed a GI50 of 2110 nM and a TGI of 4.02 µM.

System: not listed separately
Assay: Antiproliferative activity against human DU145 cells assessed as cell growth at 10^-5 M after 48 hrs by sulforhodamine B assay
Format: functional
Settings: DU-145, 48 h, read-out: Activity
CNC(=O)c1cc(Oc2ccc3nc(NC(=O)Nc4ccc(Cl)c(C(F)(F)F)c4)sc3c2)ccn1 showed a growth at 10 µM of -10%.

System: not listed separately
Assay: Antiproliferative activity against human BT549 cells assessed as cell growth at 10^-7 M after 48 hrs by sulforhodamine B assay
Format: functional
Settings: BT-549, 48 h, read-out: Activity
CNC(=O)c1cc(Oc2ccc3nc(NC(=O)Nc4ccc(Cl)c(C(F)(F)F)c4)sc3c2)ccn1 gave a growth at 0.1 µM of 100%.

System: not listed separately
Assay: Antiproliferative activity against human HCT116 cells assessed as cell growth at 10^-5 M after 48 hrs by sulforhodamine B assay
Format: functional
Settings: HCT-116, 48 h, read-out: Activity
For CNC(=O)c1cc(Oc2ccc3nc(NC(=O)Nc4ccc(Cl)c(C(F)(F)F)c4)sc3c2)ccn1, the growth at 10 µM was -29%.

System: not listed separately
Assay: Antiproliferative activity against human HCC2998 cells assessed as cell growth at 10^-5 M after 48 hrs by sulforhodamine B assay
Format: functional
Settings: HCC 2998, 48 h, read-out: Activity
CNC(=O)c1cc(Oc2ccc3nc(NC(=O)Nc4ccc(Cl)c(C(F)(F)F)c4)sc3c2)ccn1 gave a growth at 10 µM of 20%.

System: MDA-MB-435
Assay: Antiproliferative activity against human MDA-MB-435 cells assessed as cell growth at 10^-5 M after 48 hrs by sulforhodamine B assay
Format: functional
Settings: MDA-MB-435, 48 h, read-out: Activity
With CNC(=O)c1cc(Oc2ccc3nc(NC(=O)Nc4ccc(Cl)c(C(F)(F)F)c4)sc3c2)ccn1 the growth at 10 µM was -36%.

System: not listed separately
Assay: Antiproliferative activity against human NCI-ADR-RES cells assessed as cell growth at 10^-5 M after 48 hrs by sulforhodamine B assay
Format: functional
Settings: read-out: Activity
For CNC(=O)c1cc(Oc2ccc3nc(NC(=O)Nc4ccc(Cl)c(C(F)(F)F)c4)sc3c2)ccn1, the growth at 10 µM was -21%.

System: MDA-MB-468
Assay: Antiproliferative activity against human MDA-MB-468 cells assessed as cell growth at 10^-5 M after 48 hrs by sulforhodamine B assay
Format: functional
Settings: MDA-MB-468, 48 h, read-out: Activity
In the case of CNC(=O)c1cc(Oc2ccc3nc(NC(=O)Nc4ccc(Cl)c(C(F)(F)F)c4)sc3c2)ccn1, the growth at 10 µM was -40%.

— ChEMBL document CHEMBL3797052 (Eur J Med Chem, 2016)
